Key:
[1] = target: T1, NK1 receptors (Cavia porcellus, UniProt P30547); test: NK1-receptor-antagonistic effectiveness in vivo in anesthetized guinea pigs (NKA-induced early hypotension); conditions: guinea pig
T1 construct: from tissue; host or cells: whole animal: anesthetized Pirbright-White guinea pigs
Description: (§1) 6. Determination of the NK1- and NK2-receptor-antagonistic Effectiveness of the Test Substances In Vivo
(§2) The NK1- and NK2-antagonistic activities of the test substances were investigated in anesthetized guinea pigs in each case after intravenous (=i.v.) and oral (=p.o.) administration in vivo. With the present test model it is possible to detect both NK2-antagonistic effects in three different organ systems (respiratory tracts, colon and circulation) and NK1-antagonistic effects (rapid drop in blood pressure) in an animal simultaneously.
Pirbright-White guinea pigs having a body weight of 500-700 g were anesthetized with ketamine/xylazine (67/13 mg/kg subcutaneously, initial dose, further doses administered as required). […] The animals were artificially ventilated via a tracheal cannula and the respiratory pressure was recorded by a pressure transducer. […] Blood pressure, heart rate, respiratory pressure and colonic pressure were measured continuously for each animal and plotted on a recorder and by a digital data-processing system. […]
(§3) The antagonistic effects of the test substances were then determined as “area under the curve” (“AUC”) over the investigation period after administration of the test substances (1-180 min after administration) and the ED50 values after oral administration obtained therefrom were plotted in Table 7.

[2] = target: T2, human NK1 receptor (Homo sapiens, UniProt P25103); test: Binding power to NK1 receptors in vitro ([3H]-Substance P displacement, CHO cell membranes); parameters: expressed in transfected cells; host or cells: CHO cells (membrane preparation); conditions: human NK1 receptor in CHO membranes, ligand [3H]-Substance P; for Ki: read-out: pKi (NK1) (converted)
T2 sequence (P25103 whole entry): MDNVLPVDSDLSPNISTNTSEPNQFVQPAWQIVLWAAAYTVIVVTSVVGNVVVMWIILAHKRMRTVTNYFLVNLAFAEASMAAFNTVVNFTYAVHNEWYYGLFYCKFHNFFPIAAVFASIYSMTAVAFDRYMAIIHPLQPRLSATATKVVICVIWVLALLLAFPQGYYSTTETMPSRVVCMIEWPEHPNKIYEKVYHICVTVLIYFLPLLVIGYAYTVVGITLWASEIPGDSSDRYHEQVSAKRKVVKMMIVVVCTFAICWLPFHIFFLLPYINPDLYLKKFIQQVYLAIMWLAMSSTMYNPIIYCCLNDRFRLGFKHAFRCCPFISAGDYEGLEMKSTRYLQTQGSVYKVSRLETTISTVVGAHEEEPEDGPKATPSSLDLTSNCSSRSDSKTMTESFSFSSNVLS
Method: 1. Determination of the Binding Power of the Test Substances to NK1 Receptors In Vitro.
Affinity of the test substances to human NK1 receptors was measured in vitro.
The receptor binding studies were performed with [^3H]-Substance P as ligand. For the binding test, different samples of a membrane preparation of CHO cells (=egg cells of the Chinese hamster, […]), which express the human NK1 receptor (“Accession Number” of the associated nucleic acid sequence=M74290; “Accession Number” of the associated protein sequence=P25103; cf. Takeda, Y.; Chou, K. B., Takeda, J.; Sachais, B. S. and Krause, J. E; Biochemical and Biophysical Research Communications, 179(3) (1991) 1232-1240), were incubated with a solution of the marked ligand, with the incubation mixtures containing no test substance or additions of different concentration of test substance. Then, separation of bound and free ligands was performed in each of the samples with the aid of glass-fiber filtration. The fraction remaining in the filter was washed several times with buffer solution and then the radioactivity of the fraction remaining in the filter was measured using a beta scintillation counter.
For the compounds of Examples 1 to 14, that concentration which effects half maximum displacement of the bound ligand was determined as IC50 of the respective test substance. From this, the corresponding inhibition constant (Ki value) of the test substance was calculated, and was stated as the negative common logarithm of the Ki value (=pKi value) The pKi value is a measurement of the affinity of the test substances to human NK1 receptors.

[3] = target: T3, human NK2 receptor (Homo sapiens, UniProt P21452); test: Binding power to NK2 receptors in vitro ([3H]-SR 48968 displacement, CHO cell membranes); parameters: expressed in transfected cells; host or cells: CHO cells (membrane preparation); conditions: human NK2 receptor in CHO membranes, ligand [3H]-SR 48968, 90 min incubation; for Ki: read-out: pKi (NK2) (converted)
T3 sequence (P21452 1-398): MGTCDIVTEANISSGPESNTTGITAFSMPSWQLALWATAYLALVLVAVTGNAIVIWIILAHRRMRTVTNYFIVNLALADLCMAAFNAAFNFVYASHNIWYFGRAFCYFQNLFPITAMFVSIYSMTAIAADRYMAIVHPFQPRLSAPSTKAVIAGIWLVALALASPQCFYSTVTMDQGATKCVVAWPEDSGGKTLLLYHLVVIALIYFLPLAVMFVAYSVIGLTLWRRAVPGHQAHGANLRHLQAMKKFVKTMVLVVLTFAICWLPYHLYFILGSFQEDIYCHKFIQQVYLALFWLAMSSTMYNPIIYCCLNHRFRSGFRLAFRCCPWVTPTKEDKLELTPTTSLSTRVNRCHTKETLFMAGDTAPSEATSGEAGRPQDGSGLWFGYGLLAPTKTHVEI
Method: The affinity of the test substances to human NK2 receptors was measured in vitro. The ability of the test substances to displace the selective NK2 receptor antagonist SR 48968 (=saredutant) used as reference ligand from its corresponding bond was determined.
The receptor binding studies were carried out with radioactively marked [^3H]-SR 48968 (from Amersham) as ligand. For the binding test, different samples of a membrane preparation of CHO cells (=egg cells of the Chinese hamster, […]), which express the human NK2 receptor (for preparation, see N. P. Gerard et al., Journal of Biological Chemistry 265/33 (1990) 20455-20462), were incubated for 90 minutes (=min.) with a solution of the marked ligand, with the incubation mixtures containing no test substance or additions of different concentrations of test substance. Then in each case the membrane-bound ligands in the samples were separated from free ligands by filtration. The fraction remaining in the filter was washed several times with buffer solution, before its radioactivity was measured using a liquid scintillation counter. That concentration which effects half-maximum displacement of the bound reference ligand was determined as IC50 of the respective test substance. The inhibition constant (Ki value) of the test substance was calculated from the respective IC50 value, and was stated as the negative logarithmized value thereof (pKi).
If several measurements were performed, the average thereof was listed each time. The pKi value is a measurement of the affinity of the test substances to human NK2 receptors.

[4] = target: T4, NK2 receptors (Cavia porcellus, UniProt Q64077); test: NK2-receptor-antagonistic effectiveness in vivo in anesthetized guinea pigs (NKA-induced late hypotension, bronchoconstriction, colonic motility); conditions: guinea pig
T4 construct: from tissue; host or cells: whole animal: anesthetized Pirbright-White guinea pigs
T4 sequence (Q64077 1-402): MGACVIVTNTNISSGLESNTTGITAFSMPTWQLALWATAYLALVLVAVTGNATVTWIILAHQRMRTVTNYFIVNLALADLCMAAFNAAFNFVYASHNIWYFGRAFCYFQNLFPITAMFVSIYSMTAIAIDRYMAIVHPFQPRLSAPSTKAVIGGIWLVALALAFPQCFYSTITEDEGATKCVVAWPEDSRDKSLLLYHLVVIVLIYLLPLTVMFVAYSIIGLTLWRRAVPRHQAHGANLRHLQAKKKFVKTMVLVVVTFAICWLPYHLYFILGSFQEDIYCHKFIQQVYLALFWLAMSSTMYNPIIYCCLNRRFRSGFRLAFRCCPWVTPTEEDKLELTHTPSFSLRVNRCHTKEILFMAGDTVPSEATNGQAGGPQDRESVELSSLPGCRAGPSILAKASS
Description: as §1, §2
Pirbright-White guinea pigs having a body weight of 500-700 g were anesthetized with ketamine/xylazine (67/13 mg/kg subcutaneously, initial dose, further doses administered as required). The animals were provided with an intravenous catheter in order to administer the substance and an intra-arterial catheter to measure the blood pressure. The animals were artificially ventilated via a tracheal cannula and the respiratory pressure was recorded by a pressure transducer. A balloon was introduced into the distal colon of the animals for manometric recording of colon motility by a pressure transducer. Blood pressure, heart rate, respiratory pressure and colonic pressure were measured continuously for each animal and plotted on a recorder and by a digital data-processing system. […] The second phase of delayed hypotension (=phase of maximum hypotension after 2-5 min.) on the other hand is mediated via NK2 receptors, since they can be blocked by specific NK2 receptor antagonists.
These ED50 values obtained from cumulative dose effect curves are plotted in Table 6.
as §3

[5] = target: T2, human NK1 receptor; test: Functional cellular test, Ca2+ measurement using FLIPR, NK1 (substance P stimulated CHO cells)
Method: (§4) Functional Cellular Tests of the NK1- and NK2-antagonistic Effects
(§5) Functional cellular tests of the antagonistic effect of the compounds of the present invention on the human tachykinin receptors were performed in CHO cells expressing the recombinant human NK1 or NK2 receptor. In these tests the inhibition of ligand induced increase in mobilization of intracellular calcium and the inhibition of ligand induced phosphorylation of MAPK were determined, which can be used as a measure of functional activity of tachykinin-antagonists. Additionally, the antagonistic properties of reference compounds on the different tachykinin receptors were characterized for comparison.
(§6) The effects of test compounds were assessed using Chinese hamster ovary (CHO) fibroblast cells, stably expressing cloned human NK1 or NK2 receptors. The NK receptor in coupled to Gq. The activation of the Gq protein by ligand binding to the receptor leads to a mobilization of intracellular calcium and phosphorylation of MAPK. Both systems were used to determine functional effects of the test compounds.
(§7) Ca^2+Measurements Using FLIPR for NK1 and NK2 Activity
(§8) For tests, cell were seeded 24 hours prior to the experiment into black 96-well microplates. The cell density was 2.2×10^4 cells/well. All steps were done under sterile conditions. In order to observe changes in intracellular calcium levels, cells were loaded with a calcium-sensitive dye. This dye (FLUO-4, from Molecular Probes) excites at 488 nm, and emits in the 560 nm range, only if a complex with calcium is formed. For the dye loading the growth-medium was aspirated out of the well without disturbing the confluent cell layer and 100 μl loading medium (HBSS, 4 μM FLUO-4, 0.005% (w/v) pluronic acid, 2.5 mM probenecid, 20 mM HEPES, pH 7.4) was dispensed into each well using an automatic pipettor system (Multidrop, Labsystems). Pluronic acid was added to increase dye solubility and dye uptake into the cells, whereas probenecid, an anion exchange inhibitor, was added to the loading medium to increase dye retention in the cells. The cells were incubated in a 5% CO2 incubator at 37° C. for 40 minutes. After dye loading, the cells were washed three times with wash-buffer (HBSS, 2.5 mM probenecid, 20 mM HEPES, pH 7.4) to reduce basal fluorescence. In the last washing step the buffer was aspirated and replaced with 100 μl washing buffer. […] The FLIPR setup parameters were set to 0.4 sec exposure length, filter 1, 50 μl fluid addition, pipettor height at 125 μl, dispense speed 40 μl/sec without mixing. Maximal fluorescence changes were obtained using the statistic function of the FLIPR software, and data plotted using GraphPad Prism 4. All points were expressed as a percentage inhibition of the control agonist. IC50 values were determined using sigmoidal dose-response curve fitting.

[6] = target: T3, human NK2 receptor; test: Functional cellular test, Ca2+ measurement using FLIPR, NK2 (NKA stimulated CHO cells)
Method: as §4, §5, §6, §7, §8

[7] = target: T1, NK1 receptors; test: Functional NK1 antagonism on isolated guinea pig aorta rings (inhibition of Substance P-induced relaxation); conditions: phenylephrine tone, 0.01 μmol Substance P
Method: 3. Determining of the Functional NK1 Antagonism of the Test Substances on Isolated Guinea Pig Tissue In Vitro
The action antagonistic to NK1 receptors of the test substances was measured in vitro on isolated ring preparations, kept in an oxygenated nutrient solution, of the aortas of Pirbright-White guinea pigs.
In order to measure the contraction of the vessel muscles, the preparations were fixed to a hook, joined by a thread to a force measuring apparatus and the contractions were recorded in each case on a plotter. The aorta preparations were tonicized with phenylephrine. […] The relaxations before and after the administration of the test substance were qualified in percent. The effective concentration of the half maximum inhibition of the relaxation of the tone (=EC50) was calculated. The negative common logarithm of the EC50 value (=pEC50) was given as characteristic variable. The pEC50 value is a measurement of the functional effectiveness of the test substances on NK1 receptors.

[8] = target: T4, NK2 receptors; test: Functional NK2 antagonism on isolated guinea pig gall-bladder (inhibition of NKA-induced contraction); conditions: NKA 0.1 μmol/l, two hours' incubation, IC50 in mol/l
Method: 4. Determination of the Functional […] of the Test Substances on Isolated Guinea Pig Tissue In Vitro.
The NK2 receptor-antagonizing action of the test substances was determined on isolated gall-bladder preparations from Pirbright-White guinea pigs, held in an oxygen-saturated nutrient solution. To this end, the preparations were fastened on one hand in the nutrient solution to organ holders and on the other hand on a force meter by a thread.
The concentration of the test substances was increased iteratively in the subsequent experiments as a function of the result in logarithmic whole or half steps, until at least one concentration above or below 50% inhibition of contraction was determined (up to at most 10^−5 mol/l). For each concentration, the average value of inhibition of contraction was calculated from 2 to 4 preparations. In each case, the concentration of half-maximum inhibition (IC50) per test substance was calculated as characteristic variable. In each case the logarithmized value of the IC50 per test substance is given as plC50 in [mol/l].

[9] = i.v., NKA stimulus 1 min after dosing

T1 sequence (P30547 whole entry): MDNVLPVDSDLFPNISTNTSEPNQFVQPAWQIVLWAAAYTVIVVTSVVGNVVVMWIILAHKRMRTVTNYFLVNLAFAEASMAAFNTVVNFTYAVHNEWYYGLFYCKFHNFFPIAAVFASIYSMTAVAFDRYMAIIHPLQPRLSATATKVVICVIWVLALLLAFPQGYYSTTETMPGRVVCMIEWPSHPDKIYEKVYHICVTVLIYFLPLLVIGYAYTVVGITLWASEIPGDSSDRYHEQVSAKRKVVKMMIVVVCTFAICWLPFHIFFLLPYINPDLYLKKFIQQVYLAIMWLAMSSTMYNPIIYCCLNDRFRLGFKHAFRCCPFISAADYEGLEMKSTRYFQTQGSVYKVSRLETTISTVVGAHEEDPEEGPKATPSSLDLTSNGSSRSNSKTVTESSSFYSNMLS

| SMILES | Ki [2] | Ki [3] | Kb [5] | Kb [6] | other results |
| --- | --- | --- | --- | --- | --- |
| CN(CC(CCN1CCN(C(c2ccco2)C(O)C(O)CO)CC1)c1ccc(Cl)c(Cl)c1)C(=O)c1cc(C#N)cc2ccccc12 (centres unmarked) [Compound 7] |  |  |  |  | ED50 iv after 1 min (cumulative), NK1 (early hypotension) [1, 9]: 0.052 µmol/kg; pKi (NK1) [2]: 8.3; pKi (NK2) [3]: 7.4; ED50 iv after 1 min (cumulative), NK2 (bronchoconstriction) [4, 9]: 0.207 µmol/kg; ED50 iv after 1 min (cumulative), NK2 (colonic motility) [4, 9]: 0.309 µmol/kg; ED50 iv after 1 min (cumulative), NK2 (late hypotension) [4, 9]: 0.338 µmol/kg; pA2 (NK1) ([5]; CHO cells with human NK1 receptor, FLIPR Ca2+, substance P 10^-8 M): 8.8; pA2 (NK2) ([6]; CHO cells with human NK2 receptor, FLIPR Ca2+, NKA 10^-7 M): 8.1 |
| CN(CC(CCN1CCN(C(c2ccsc2)C(O)C(O)C(O)CO)CC1)c1ccc(Cl)c(Cl)c1)C(=O)c1cc(C#N)cc2ccccc12 (centres unmarked) [Compound 5] |  |  |  |  | pEC50 [7]: 10.0; pIC50 [8]: 7.5; pKi (NK1) [2]: 8.9; pKi (NK2) [3]: 7.3 |
| CC(=O)OC[C@@H](OC(C)=O)[C@H](c1ccco1)N1CCN(CC[C@H](CN(C)C(=O)c2cc(C#N)cc3ccccc23)c2ccc(Cl)c(Cl)c2)CC1 [Compound 27, (2S,3R)-2-(acetyloxy)-3-{4-[(3S)-4-[3-cyano-1-naphthoyl)(methyl)amino]-3-(3,4-dichlorophenyl)butyl]piperazin-1-yl}-3-(2-furyl)propyl acetate] | 6.31 nM | 25.1 nM | 0.631 nM | 7.94 nM |  |
| CN(C[C@@H](CCN1CCN([C@@H](c2cccs2)[C@H](O)CO)CC1)c1ccc(Cl)c(Cl)c1)C(=O)c1cc(C#N)cc2ccccc12 [Compound 9, 3-cyano-N-[(2S)-2-(3,4-dichlorophenyl)-4-{4-[(1R,2S)-2,3-dihydroxy-1-(2-thienyl)propyl]piperazin-1-yl}butyl]-N-methyl-1-naphthamide] |  |  |  | 10 nM |  |
| CC(=O)OCC(O)C(Cc1ccccc1)N1CCN(CCC(CN(C)C(=O)c2cc(C#N)cc3ccccc23)c2ccc(Cl)c(Cl)c2)CC1 (centres unmarked) [Compound 26] | 7.94 nM | 100 nM | 10 nM | 39.8 nM |  |
| CN(C[C@@H](CCN1CCN([C@@H](c2ccco2)[C@H](O)CO)CC1)c1ccc(Cl)c(Cl)c1)C(=O)c1cc(C#N)cc2ccccc12 [Compound 1, 3-cyano-N-[(2S)-2-(3,4-dichlorophenyl)-4-{4-[(1R,2S)-1-(2-furyl)-2,3-dihydroxy-propyl]-piperazin-1-yl}butyl]-N-methyl-1-naphthamide] |  |  |  |  | melting point: 140 to 142 °C; oral activity as NK1 receptor antagonist (in words) ([1]; oral): active orally; oral activity as NK2 receptor antagonist (in words) ([4]; oral): active orally |
| COc1ccc([C@@H]([C@H](O)CO)N2CCN(CC[C@H](CN(C)C(=O)c3cc(C#N)cc4ccccc34)c3ccc(Cl)c(Cl)c3)CC2)cc1 [Compound 16, 3-cyano-N-[(2)-2-(3,4-dichlorophenyl)-4-{4-[(1S,2S)-2,3-dihydroxy-1-(4-methoxyphenyl)propyl]piperazin-1-yl}butyl]-N-methyl-1-naphthamide] | 1 nM | 794 nM | 0.501 nM | 0.794 nM |  |
| CN(CC(CCN1CCN(C(Cc2ccccc2)C(O)CO)CC1)c1ccc(Cl)c(Cl)c1)C(=O)c1cc(C#N)cc2ccccc12 (centres unmarked) [Compound 24] | 10 nM | 31.6 nM | 7.94 nM | 15.8 nM |  |

Source: patent publication US7592344B2, “NK1 and NK2-antagonists and compositions and methods of using the same” (Solvay Pharmaceuticals GmbH, priority 2005, dated 2009)
